We go through two molecules from patent US20120135089A1, “E3 LIGASE INHIBITORS” (priority 2009, published 2012).

The test deals with T1, Mdm2(C464A)-luciferase fusion protein (Homo sapiens, UniProt Q00987, C464A).
T1 construct: Using full-length Mdm2 allowed for the presence of all domains of Mdm2; expressed in transfected cells
Kind of test: counter screen in control Mdm2(C464A)-luciferase cell line. The class given is cell-based. Here is the method: The Mdm2-luciferase cell line was seeded at 7,500 cells per well, in 384-well white plates (PerkinElmer, Waltham, Mass., Cat. No. 6007688), in 27 μl of media (DMEM with FBS and P/S). Assay plates with cells were incubated at 37° C. overnight to allow cells to adhere. After 24 hours, 2 μl from the ‘mother’ plate (4 mg/ml) was transferred to a ‘daughter plate’ containing 148 μl media in order to dilute the compound 1:75. Next, 3 μl from each well of the ‘daughter plates’ was added to triplicate assay plates for a final concentration of 5.33 μg/ml. Assay plates were incubated at 37° C. for 2 hours. Then the cells were lysed with the addition of 30 μl of luminescence buffer (PerkinElmer, Cat. No. 6016989), and the plates were incubated at room temperature for 30 minutes before being analyzed on a Victor3 Plate Reader (PerkinElmer) for luminescence. Compounds that caused an increase in luminescence greater than 30% were re-ordered for further analysis. […] This was determined by comparing the negative control, no treatment, to the positive control, 10 μM MG132. […]
The above experiments verified that the cell lines could function as a valid system to screen for Mdm2 E3 ligase inhibitors. […] All compounds were incubated with the Mdm2-luciferase cell line for 2 hours, after which relative luminescence was detected by the addition of a luminesence buffer. […]

T1 sequence (Q00987 whole entry C464A, the tested form may be a part): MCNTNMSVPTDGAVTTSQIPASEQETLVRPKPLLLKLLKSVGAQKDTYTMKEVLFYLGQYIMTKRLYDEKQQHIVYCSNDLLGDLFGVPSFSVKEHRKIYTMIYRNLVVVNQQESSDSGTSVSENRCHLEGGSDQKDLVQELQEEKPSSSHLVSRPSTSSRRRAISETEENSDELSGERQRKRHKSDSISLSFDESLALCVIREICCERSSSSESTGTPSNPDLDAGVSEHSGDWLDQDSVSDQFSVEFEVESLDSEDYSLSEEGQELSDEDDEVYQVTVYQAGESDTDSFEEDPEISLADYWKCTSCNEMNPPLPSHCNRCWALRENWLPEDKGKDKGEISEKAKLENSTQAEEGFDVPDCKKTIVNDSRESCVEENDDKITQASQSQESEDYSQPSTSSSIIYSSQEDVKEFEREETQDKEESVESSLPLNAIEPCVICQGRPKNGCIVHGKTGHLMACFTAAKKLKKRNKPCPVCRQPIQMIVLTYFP

Take `CCCCn1c(=O)[nH]c(O)c(C2NCCc3c2[nH]c2ccccc32)c1=O` (centres unmarked) [MEL23]: the “luminescence of the control Mdm2(C464A)-luciferase cell line” value is given as “did not significantly affect”.
Take `Cn1c(O)c(C2NCCc3c2[nH]c2ccccc32)c(=O)n(C)c1=O` (centres unmarked) [MEL24]: the “luminescence of the control Mdm2(C464A)-luciferase cell line” value is given as “did not significantly affect”.
